Test results taken from ChEMBL document CHEMBL5150042, “Phenolic furanochromene hydrazone derivatives: Synthesis, antioxidant activity, ferroptosis inhibition, DNA cleavage and DNA molecular docking studies” (Bioorg Med Chem, 2022).
Active and inactive are the calls of the source. No cut-off for these calls is given here.

Experiments:
[1] = test system: DNA; experiment: Induction of copper-mediated Escherichia coli supercoiled pBR322 DNA cleavage assessed as increase in open circular form of DNA with small amount of linear form at 1 mM incubated for 24 hrs in presence of Cu2+ ion by agarose gel electrophoresis analysis; format: nucleic-acid assay
[2] = test system: DNA; experiment: Induction of copper-mediated Escherichia coli supercoiled pBR322 DNA cleavage at 100 uM incubated for 24 hrs in presence of Cu2+ ion by agarose gel electrophoresis analysis; format: nucleic-acid assay
[3] = Antioxidant activity assessed as DPPH radical scavenging activity incubated for 30 mins under dark condition by microplate reader based assay; format: functional
[4] = Antioxidant activity assessed as trolox equivalent of Cu2+ reducing activity incubated for 30 mins by CUPRAC assay relative to trolox; format: functional
[5] = test system: HaCaT; experiment: Anti-ferroptotic activity against erastin-induced ferroptosis in human HaCaT cells assessed as cell viability at 5 uM pretreated with compound for 4 hrs followed by erastin challenge for 24 hrs by MTT assay (reference value: 45%); format: functional; conditions: time 28 hrs, read-out: Activity
[6] = test system: DNA; experiment: Induction of copper-mediated Escherichia coli supercoiled pBR322 DNA cleavage assessed as increase in cleaved DNA with significant amount of supercoiled form at 1 mM incubated for 24 hrs in presence of Cu2+ ion by agarose gel electrophoresis analysis; format: nucleic-acid assay
[7] = test system: DNA; experiment: Induction of copper-mediated Escherichia coli supercoiled pBR322 DNA cleavage assessed as increase in open circular form of DNA at 1 mM incubated for 24 hrs in presence of Cu2+ ion by agarose gel electrophoresis analysis; format: nucleic-acid assay
[8] = test system: DNA; experiment: Induction of copper-mediated Escherichia coli supercoiled pBR322 DNA cleavage assessed as cleavage of DNA into smaller fragments at 1 mM incubated for 24 hrs in presence of Cu2+ ion by agarose gel electrophoresis analysis; format: nucleic-acid assay
[9] = test system: DNA; experiment: Induction of copper-mediated Escherichia coli supercoiled pBR322 DNA cleavage assessed as increase in open circular form and linear form of DNA at 100 uM incubated for 24 hrs in presence of Cu2+ ion by agarose gel electrophoresis analysis; format: nucleic-acid assay
[10] = test system: DNA; experiment: Induction of Escherichia coli supercoiled pBR322 DNA cleavage incubated for 90 mins in presence of Cu2+ ion by agarose gel electrophoresis analysis; format: nucleic-acid assay; conditions: dose 3.9-500 µM, DDE = dose-dependent effect

SMILES	Activity [1]	Activity [2]	IC50 ([3]; read-out: IC50) [µM]	Ratio [4]	viability at 5 µM [5] [%]	Activity [6]	Activity [7]	Activity [8]	Activity [9]	Activity [10]	IC50 [3]
COc1cc(/C=N/NC(=O)c2cc3ccc4c(c3o2)C=CC(C)(C)O4)cc(I)c1O	Active	Active	> 100	0.99	59						
O=C1O[C@H]([C@@H](O)CO)C(O)=C1O [ASCORBIC ACID]			51.2	0.72							
COc1ccc(/C=N/NC(=O)c2cc3ccc4c(c3o2)C=CC(C)(C)O4)c(O)c1	Active		67.4	1.01	> 50						
O=c1c(O)c(-c2ccc(O)c(O)c2)oc2cc(O)ccc12 [FISETIN]					70						
Cc1ccc(O)c(/C=N/NC(=O)c2cc3ccc4c(c3o2)C=CC(C)(C)O4)c1	Active		> 100	0.95	62						
COc1ccc(/C=N/NC(=O)c2cc3ccc4c(c3o2)C=CC(C)(C)O4)cc1O	Active	Active	> 100	1.36	44						
CC1(C)C=Cc2c(ccc3cc(C(=O)N/N=C/c4c(O)cc(O)cc4O)oc23)O1			81	1.36	56	Active					
COc1cc(O)c(/C=N/NC(=O)c2cc3ccc4c(c3o2)C=CC(C)(C)O4)c(OC)c1	Active		> 100	0.97	41						
CC1(C)C=Cc2c(ccc3cc(C(=O)N/N=C/c4cccc(O)c4)oc23)O1		Active					Active				
CC1(C)C=Cc2c(ccc3cc(C(=O)N/N=C/c4cc(O)ccc4O)oc23)O1			9.1	1.8	69		Active				
CC1(C)C=Cc2c(ccc3cc(C(=O)N/N=C/c4ccccc4O)oc23)O1				0.48	62		Active				
CC1(C)C=Cc2c(ccc3cc(C(=O)N/N=C/c4cc(O)cc(O)c4)oc23)O1		Active	> 100	1.27			Active				
CC1(C)C=Cc2c(ccc3cc(C(=O)N/N=C/c4ccc(O)cc4)oc23)O1		Active	> 100	0.79			Active				
CC1(C)C=Cc2c(ccc3cc(C(=O)N/N=C/c4cc(O)c(O)cc4O)oc23)O1			24.3	2.43	56			Active			
CC1(C)C=Cc2c(ccc3cc(C(=O)N/N=C/c4cccc(O)c4O)oc23)O1			6.04	1.75		Active					
COc1ccc(O)c(/C=N/NC(=O)c2cc3ccc4c(c3o2)C=CC(C)(C)O4)c1	Active		> 100	1.22	44						
CC1(C)C=Cc2c(ccc3cc(C(=O)N/N=C/c4cc(O)c(O)c(O)c4)oc23)O1			27.9	2.59	56	Active					
CC1(C)C=Cc2c(ccc3cc(C(=O)N/N=C/c4ccc(O)c(O)c4O)oc23)O1			10.1	2.89	70		Active		Active		
CC1(C)C=Cc2c(ccc3cc(C(=O)N/N=C/c4ccc(O)cc4O)oc23)O1			70.1	1.42							
CC1(C)C=Cc2c(ccc3cc(C(=O)N/N=C/c4ccc(O)c(O)c4)oc23)O1			5.92	3.97	60			Active	Active	Dde	
Cc1cc(/C=N/NC(=O)c2cc3ccc4c(c3o2)C=CC(C)(C)O4)cc(C)c1O	Active	Active	61.2	1.11	50						
COc1cc(/C=N/NC(=O)c2cc3ccc4c(c3o2)C=CC(C)(C)O4)cc(OC)c1O	Active	Active		2.22	57						Nd(Insoluble)
COc1cc(/C=N/NC(=O)c2cc3ccc4c(c3o2)C=CC(C)(C)O4)cc(Br)c1O	Active	Active	> 100	1.09	59						
COc1cc(/C=N/NC(=O)c2cc3ccc4c(c3o2)C=CC(C)(C)O4)cc([N+](=O)[O-])c1O	Active	Active	> 100	1.52	59						
COc1cc(/C=N/NC(=O)c2cc3ccc4c(c3o2)C=CC(C)(C)O4)ccc1O	Active	Active	87.8	1.75	44						
COc1cccc(/C=N/NC(=O)c2cc3ccc4c(c3o2)C=CC(C)(C)O4)c1O	Active		> 100	0.85	44						
